# Laboratory results as given in patent US6936628B2, “Oral administration of epothilones” (Bristol-Myers Squibb Company, priority 2002, dated 2005).
# Like-named read-outs stand apart in the source and are kept apart here.
# Key:
# [1] = Microsomal incubation, dog; settings: dog liver microsomes + NADPH, 20 μM
# [2] = Single dose IV toxicokinetic study in dogs; format: in vivo; settings: both sexes, dog, plasma, IV infusion; for Cmax: combined across gender
# Method: The single dose IV toxicokinetics of Compound A were evaluated in dogs as a part of a toxicology study. Compound A, prepared in 50 mM citrate buffer (pH 5), was given by IV infusion (over approximately 2-3 min period) at nominal doses of 0.07 and 0.35 mg/kg (the actual doses were 0.055 and 0.27 mg/kg, respectively) to 2 dogs/sex/dose. Blood samples were collected at 5 and 30 minutes, and at 1, 3, 6, 12, and 24 h after dosing. Plasma concentrations of Compound A were determined using a validated LC/MS/MS assay with a standard curve range of 2-500 ng/mL. […] Definitive comparison between sex was not made due to limited sample size per sex; however, it appeared that there were no marked differences in the systemic exposure to Compound A between male and female dogs.
# in vivo [3] = settings: male, Sprague-Dawley, rat, plasma, other: intraarterial (IA), 2 mg/kg
# Method: In another pharmacokinetic study, fasted male Sprague-Dawley rats, assigned to two IA groups (2 mg/kg) and one oral (8 mg/kg) group (n=3/group), were administered a single dose of Compound A. Compound A was prepared for IA administration in two separate vehicles: vehicle 1, cremophor:ethanol:water (10:10:80), and vehicle 2, ethanol:phosphate buffer, 0.05 M, pH 7.4 (6:94). The vehicle for the oral administration was ethanol:phosphate buffer, 0.3 M, pH 8 (18:82). Samples were collected at 10, 15, 30, and 45 min, and at 1, 2, 4, 6, 8, 10, 24, and 48 hours after dosing.
# [4] = Single dose IV toxicokinetics in rats; format: in vivo; settings: both sexes, rat, plasma, IV 1, 5 and 7 mg/kg, across doses and sex
# Method: The single dose IV toxicokinetics of Compound A in rats were evaluated as a part of a toxicology study. Compound A, prepared in 50 mM citrate buffer (pH 5), was given intravenously (over approximately 1-2 min period) at doses of 1, 5, and 7 mg/kg to 3 rats/gender/dose. Blood samples were collected at 3, 15, and 30 minutes, and at 1, 3, 6, 12, and 24 h after dosing. Plasma concentrations of Compound A were determined using a validated LC/MS/MS assay with a standard curve range of 2-500 ng/mL. […] Systemic exposures were reasonably similar between male and female rats. […] Furthermore, there appeared to be no differences in the toxicokinetics of Compound A between male and female rats.
# [5] = Stability in rat EDTA plasma and whole blood; format: in vitro ADME
# Method: Plasma samples from exploratory pharmacokinetic studies were analyzed for Compound A concentrations using an LC/MS/MS assay with a standard curve range of 3.9 to 2000 ng/mL. In pharmacodynamic studies, Compound A concentrations were determined using an LC/MS/MS assay with a standard curve range of 10-40000 nM (5.23-20920 ng/mL) in mouse plasma. For toxicology studies, validated LC/MS/MS assays were used to determine the concentrations of Compound A in rat and dog plasma. Analytical data management for the validated assays was carried out using Watson®. The standard curve range for the validated assay in both matrices was 2 to 500 ng/mL of Compound A. The coefficient of variation for the inter- and intra-assay precision in rat and dog plasma was within 9% and the accuracy was greater than 92%. […] Compound A was stable for at least 4 months at !20EC and through at least 3 freeze-thaw cycles in rat and dog EDTA plasma. In addition, Compound A was stable in fresh rat and dog EDTA whole blood for at least 1 h at 4EC.
# CYP2C9 = CYP2C9 (Homo sapiens, UniProt P11712); test: biochemical
# Liver S9 incubation, rat = settings: rat liver S9, 20 μM
# CYP2D6 = CYP2D6 (Homo sapiens, UniProt P10635); test: Inhibition of human CYP enzymes, CYP2D6
# human CYP2C19 = human CYP2C19 (Homo sapiens, UniProt P33261); test: biochemical
# in vivo [6] = settings: male, Sprague-Dawley, rat, plasma, 2 mg/kg, rats, IA 2 mg/kg
# Excerpt: A total of eight rats were divided into four groups (three IA groups and one oral group), with two rats in each group. […] The vehicle used for the oral administration was propylene glycol:ethanol:phophate buffer, 1 M, pH 8 (58:12:30).
# Sequence of CYP2C9 (P11712 whole entry): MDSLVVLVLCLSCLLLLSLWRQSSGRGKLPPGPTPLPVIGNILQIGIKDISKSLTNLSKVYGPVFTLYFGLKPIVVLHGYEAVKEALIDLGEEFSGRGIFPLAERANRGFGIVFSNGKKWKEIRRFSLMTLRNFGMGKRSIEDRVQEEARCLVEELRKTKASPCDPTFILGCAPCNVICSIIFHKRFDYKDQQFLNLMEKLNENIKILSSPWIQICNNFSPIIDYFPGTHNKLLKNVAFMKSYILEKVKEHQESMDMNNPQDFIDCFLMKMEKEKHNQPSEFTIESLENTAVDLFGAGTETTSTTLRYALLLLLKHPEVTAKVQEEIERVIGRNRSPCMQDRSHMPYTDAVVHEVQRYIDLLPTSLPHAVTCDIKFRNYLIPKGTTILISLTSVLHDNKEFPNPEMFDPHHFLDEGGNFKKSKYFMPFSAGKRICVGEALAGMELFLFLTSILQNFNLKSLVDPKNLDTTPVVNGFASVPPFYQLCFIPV
# Sequence of CYP2D6 (P10635 whole entry): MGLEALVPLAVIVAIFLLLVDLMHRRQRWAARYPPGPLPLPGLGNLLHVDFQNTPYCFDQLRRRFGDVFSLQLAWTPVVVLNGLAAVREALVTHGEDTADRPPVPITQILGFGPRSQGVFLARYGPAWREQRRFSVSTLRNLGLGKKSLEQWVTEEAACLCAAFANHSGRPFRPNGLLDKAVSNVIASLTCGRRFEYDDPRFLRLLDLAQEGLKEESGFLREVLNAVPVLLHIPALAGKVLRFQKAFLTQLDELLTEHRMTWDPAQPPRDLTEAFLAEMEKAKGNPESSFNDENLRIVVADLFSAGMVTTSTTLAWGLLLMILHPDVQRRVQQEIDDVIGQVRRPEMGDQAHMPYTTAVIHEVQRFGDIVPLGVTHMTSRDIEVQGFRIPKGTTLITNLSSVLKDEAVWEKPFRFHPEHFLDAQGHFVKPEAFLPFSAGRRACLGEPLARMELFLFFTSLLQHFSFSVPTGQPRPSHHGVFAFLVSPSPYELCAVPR
# Sequence of human CYP2C19 (P33261 whole entry): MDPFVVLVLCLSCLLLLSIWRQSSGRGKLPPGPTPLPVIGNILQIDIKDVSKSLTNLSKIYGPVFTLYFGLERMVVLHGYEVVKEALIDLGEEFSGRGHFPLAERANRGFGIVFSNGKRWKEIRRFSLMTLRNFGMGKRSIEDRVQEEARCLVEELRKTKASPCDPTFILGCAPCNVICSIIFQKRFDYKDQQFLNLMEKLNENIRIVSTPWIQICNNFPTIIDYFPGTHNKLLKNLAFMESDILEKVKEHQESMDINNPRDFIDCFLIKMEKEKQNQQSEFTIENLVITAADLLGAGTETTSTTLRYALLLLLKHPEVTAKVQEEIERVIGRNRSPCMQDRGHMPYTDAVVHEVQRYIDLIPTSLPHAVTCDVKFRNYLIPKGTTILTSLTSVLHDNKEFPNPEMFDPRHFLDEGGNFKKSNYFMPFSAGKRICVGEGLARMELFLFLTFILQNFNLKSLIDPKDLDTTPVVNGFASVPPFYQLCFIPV
structure (smiles),measurement,setting,value
"C/C(=C\c1csc(CN)n1)[C@@H]1C[C@@H]2O[C@]2(C)CCC[C@H](C)[C@H](O)[C@@H](C)C(=O)C(C)(C)[C@@H](O)CC(=O)O1 (relative stereo) [Compound A, [1S-[1R*,3R*(E),7R*,10S*,11R*,12R*,16S*]]-3-[2-[2-(aminomethyl)-4-thiazolyl]-1-methylethenyl]-7,11-dihydroxy-8,8,10,12,16-pentamethyl-4,17-dioxabicyclo[14.1.0]heptadecane-5,9-dione]",rate of oxidative metabolism,[1],0.07
same,increase in systemic exposure with cremophor vehicle,vehicle 2 compared to vehicle 1,about 3.4 fold
same,increase in systemic exposure with cremophor vehicle,vehicle 2 compared to vehicle 3,~5.3 fold
same,AUC,[2]; 0.055 mg/kg,48.3 ng·h/mL
same,Cmax,[2]; 0.055 mg/kg,104 ng/mL
same,AUC,[2]; 0.27 mg/kg,362 ng·h/mL
same,Cmax,[2]; 0.27 mg/kg,664 ng/mL
same,AUC,in vivo [3],2890 ng·h/mL
same,AUC,in vivo [3]; pH 7.4,717 ng·h/mL
same,AUC,[4],159 to 1940 ng·h/mL
same,Cmax,[4],183 to 3910 ng/mL
same,stable through freeze-thaw cycles,[5]; rat EDTA plasma,at least 3 freeze-thaw cycles
same,stable in frozen plasma,"[5]; rat EDTA plasma, !20EC",at least 4 months
same,stable in plasma prior to processing,"[5]; rat EDTA plasma, room temperature",at least 4 h
same,stable in fresh whole blood,"[5]; rat EDTA whole blood, 4EC",at least 1 h
same,stable in an autosampler after processing,"[5]; rat plasma samples, 4EC",at least 5 days
same,IC50,CYP2C9,10.6 µM
same,rate of oxidative metabolism,"Liver S9 incubation, rat",0.04
same,IC50,CYP2D6,> 70 µM
same,IC50,human CYP2C19,2.4 µM
same,AUC,"in vivo [6]; mean AUC, vehicle 1 ethanol:water (10:90)",133 ng·h/mL
same,AUC,"in vivo [6]; mean AUC, vehicle 2 cremophor:ethanol:water (10:10:80)",708 ng·h/mL
same,AUC,"in vivo [6]; pH 7.4, mean AUC, vehicle 3 propylene glycol:ethanol:phosphate buffer pH 7.4 (40:5:55)",210 ng·h/mL
